Results on three compounds are retold here after US20230270870A1, “DOSAGE OF AN ANTIBODY-DRUG CONJUGATE” (DAIICHI SANKYO COMPANY, LIMITED, priority 2019, published 2023).

Read-outs that look alike come from different tables or passages of the source.

In data set [1] the test system is NSCLC. To be noted: NSCLC progressed during or after platinum-based doublet chemotherapy, N=290; cited from earlier work.
The test system of data set [2] is NSCLC. To be noted: phase 2, subjects who received standard of care; cited from earlier work.
A short description of data set [3]: Phase 1 clinical study: pharmacokinetics. Type of data set: in vivo. To be noted: human, plasma, intravenous. The protocol: Preliminary single- and multiple-dose PK were evaluated using noncompartmental analysis in 61 subjects who received DS-1062a (0.27 mg/kg to 10 mg/kg).
Data set [4] addresses T1, topoisomerase I (Homo sapiens, UniProt P11387).
T1 sequence (P11387 1-765): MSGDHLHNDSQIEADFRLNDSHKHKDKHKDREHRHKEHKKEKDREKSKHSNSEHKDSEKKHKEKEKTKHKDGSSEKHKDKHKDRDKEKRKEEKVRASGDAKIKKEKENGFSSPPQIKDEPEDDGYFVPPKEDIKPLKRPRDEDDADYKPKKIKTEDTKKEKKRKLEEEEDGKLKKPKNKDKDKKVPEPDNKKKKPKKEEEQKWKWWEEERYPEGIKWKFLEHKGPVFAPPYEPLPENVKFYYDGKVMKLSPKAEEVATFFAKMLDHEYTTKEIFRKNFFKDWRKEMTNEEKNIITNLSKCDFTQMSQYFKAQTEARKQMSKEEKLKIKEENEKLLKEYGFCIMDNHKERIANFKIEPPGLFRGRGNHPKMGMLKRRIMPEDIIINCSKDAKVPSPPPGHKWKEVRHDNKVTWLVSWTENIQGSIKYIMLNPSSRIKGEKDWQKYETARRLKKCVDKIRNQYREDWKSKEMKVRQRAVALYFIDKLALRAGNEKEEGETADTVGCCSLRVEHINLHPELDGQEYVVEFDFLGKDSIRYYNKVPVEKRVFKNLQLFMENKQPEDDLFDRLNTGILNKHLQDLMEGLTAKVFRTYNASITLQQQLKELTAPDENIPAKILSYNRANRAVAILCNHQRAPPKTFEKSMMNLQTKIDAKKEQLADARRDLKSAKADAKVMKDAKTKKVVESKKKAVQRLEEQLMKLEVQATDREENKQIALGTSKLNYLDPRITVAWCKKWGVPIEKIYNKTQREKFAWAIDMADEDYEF
To be noted: cited from earlier work.

`CC(=O)O[C@@]12CO[C@@H]1C[C@H](O)[C@@]1(C)C(=O)[C@H](O)C3=C(C)[C@@H](OC(=O)[C@H](O)[C@@H](NC(=O)OC(C)(C)C)c4ccccc4)C[C@@](O)([C@@H](OC(=O)c4ccccc4)[C@H]21)C3(C)C` [Docetaxel monotherapy, Docetaxel]: in data set [1], the DCR is listed as 54.0% (158/290) (not provided) and the ORR is 12.0% (36/290) (9.0% to 17.0%).

Sactizumab govitecan: the ORR in data set [2] is 19%. In the case of `CC[C@@]1(O)C(=O)OCc2c1cc1n(c2=O)Cc2c-1nc1cc(F)c(C)c3c1c2[C@@H](NC(=O)CO)CC3` [Compound 1, HO—CH2—C(═O)—(NH—DX)], the “exposure of released drug compared with DS-1062a” value in data set [3] was “lower than that of DS-1062a”. Further, the “topoisomerase I inhibitory effect” value in data set [4] is given as “topoisomerase I inhibitory effect”.
